Experimental data reported in the OligoGym collection.
Values joined by “and” are separate entries in the source; they are usually repeats but may differ in a detail not shown here. Equal entries are not always repeated. After the bases stand the sugars from the 5' end (letter, count) and the backbone: PS all phosphorothioate, else s phosphorothioate and o phosphodiester by linkage. Methylation of C is not given here. k = constrained ethyl (cEt); d = 2'-deoxy (DNA)

molecular target: MALAT1; settings: ASO, A431, 0.005 µM

Sequence	target mRNA inhibition
CACCCTCTAAGAGACA (sugars k3 d10 k3, PS)	1%
CCCCATATAAATCCCT (sugars k3 d10 k3, PS)	-7%
ACTTTTAATCATACTC (sugars k3 d10 k3, PS)	21%
CAGTAGGGCTTCTCAA (sugars k3 d10 k3, PS)	10%
ATTCATGAGTATAAGC (sugars k3 d10 k3, PS)	29%
CTACACAATTTACATC (sugars k3 d10 k3, PS)	22%
AACTCCACAGCTCTTA (sugars k3 d10 k3, PS)	41%
GATCACTTTAGAGGCT (sugars k3 d10 k3, PS)	-8%
GACCCTACTGAAGAGC (sugars k3 d10 k3, PS)	32%
CTTGAATTACTTCCGT (sugars k3 d10 k3, PS)	56% and 40%
CCCCAATCAAGATTTT (sugars k3 d10 k3, PS)	-21%
TTAATGTCAGCCCAGT (sugars k3 d10 k3, PS)	37%
ATGGACATCTCTTCCA (sugars k3 d10 k3, PS)	30%
CACTGCAAGGTCTCAT (sugars k3 d10 k3, PS)	41%
TCCCACCCAGCATTAC (sugars k3 d10 k3, PS)	27%
GTCTAGGATCCTCTAC (sugars k3 d10 k3, PS)	14%
TTAAGAACTCCACAGC (sugars k3 d10 k3, PS)	46%
CTCTCATTTATTTCGG (sugars k3 d10 k3, PS)	59% and 84%
AGGGACAGTAGGTATA (sugars k3 d10 k3, PS)	16%
CCTTGAAACCGATTAT (sugars k3 d10 k3, PS)	36%
CTAAGATTGTAAGCAT (sugars k3 d10 k3, PS)	28%
GCAAATCGCCATGGAA (sugars k3 d10 k3, PS)	21%
TGGCCTACTCAAGCTC (sugars k3 d10 k3, PS)	-8%

Sequence	target mRNA inhibition
CATGTGCCTGGAATTA (sugars k3 d10 k3, PS)	26%
TCATACTGCCAGGCTG (sugars k3 d10 k3, PS)	29%
CAACTCGCATCACCGG (sugars k3 d10 k3, PS)	9%
AGGCAGTTATATTAGG (sugars k3 d10 k3, PS)	26%
CATAACTGATCTGACT (sugars k3 d10 k3, PS)	-5%
CACCTGGGTCAGCTGT (sugars k3 d10 k3, PS)	25%
AGTCCTAGCTTCATCA (sugars k3 d10 k3, PS)	27%
CCTTAGGATAATAGCG (sugars k3 d10 k3, PS)	60% and 51%
CGTGAAAACCCACTCT (sugars k3 d10 k3, PS)	-6%
TTTAAAGTAGACCAAC (sugars k3 d10 k3, PS)	-49%
CCGCCTGAGCCCCGGG (sugars k3 d10 k3, PS)	-9%
GCCTCAATCCCACACC (sugars k3 d10 k3, PS)	2%
AGAACTAGTGGTTCCC (sugars k3 d10 k3, PS)	-3%
TTGACCTTAGGATAAT (sugars k3 d10 k3, PS)	47%
TACCGTTTTTCAGCTT (sugars k3 d10 k3, PS)	-31%
TTTTAATCACCTTCGG (sugars k3 d10 k3, PS)	44%
CAACAATTTAGAGCTT (sugars k3 d10 k3, PS)	12%
TCAAGGTCTTTTAATC (sugars k3 d10 k3, PS)	41%
GTGTTATGCCTGGTTA (sugars k3 d10 k3, PS)	2%
AGCTACTTAGCTGTGG (sugars k3 d10 k3, PS)	34%
TACCACTCTAAGATTG (sugars k3 d10 k3, PS)	5%
TACCACTCCCAATTAA (sugars k3 d10 k3, PS)	12%
GAGCAGCACGGGCTGT (sugars k3 d10 k3, PS)	14%

Sequence	target mRNA inhibition
GAATACCATCTGAAAG (sugars k3 d10 k3, PS)	16%
AACCGTAACAGGCCAC (sugars k3 d10 k3, PS)	50%
TAGTTTACCACCTTTT (sugars k3 d10 k3, PS)	15%
GCAAAATGTACTCAGC (sugars k3 d10 k3, PS)	23%
GGGTTATGCTTATTCC (sugars k3 d10 k3, PS)	28%
GTCTGATTATCCTGAT (sugars k3 d10 k3, PS)	33%
GAAGTCTCGGGCTGCA (sugars k3 d10 k3, PS)	6%
ATTACCTAAACCCACC (sugars k3 d10 k3, PS)	-10%
TTCTTCGGTTAAAAAT (sugars k3 d10 k3, PS)	2%
TGGTGAATTCAACTGG (sugars k3 d10 k3, PS)	33%
AAGTTACATGTTCCCA (sugars k3 d10 k3, PS)	39%
CGGCCCGCACGGAAAT (sugars k3 d10 k3, PS)	24%
CCCTATATAAGGTCAA (sugars k3 d10 k3, PS)	13%
GCTTAAGAGGGCAGGA (sugars k3 d10 k3, PS)	-7%
TTAATGCTAGTCCTCA (sugars k3 d10 k3, PS)	39%
TTAAGACCAAGGGAGG (sugars k3 d10 k3, PS)	29%
GCAAGTTAAACTTATC (sugars k3 d10 k3, PS)	42%
TTCTAGACAGACCTAA (sugars k3 d10 k3, PS)	29%
TTGCTCACATGCCAGT (sugars k3 d10 k3, PS)	40%
ACACCCGGAAATCGGC (sugars k3 d10 k3, PS)	8%
CCTGAAAAAGTCTTAG (sugars k3 d10 k3, PS)	28%
CTGCAGATGCAAGTTA (sugars k3 d10 k3, PS)	49%
AGCACTTATCCCTAAC (sugars k3 d10 k3, PS)	40%

Sequence	target mRNA inhibition
GAAGAATACCATCTGA (sugars k3 d10 k3, PS)	5%
CAGGACTTGGCAGTCT (sugars k3 d10 k3, PS)	14%
TACCACCTTTTGAAGG (sugars k3 d10 k3, PS)	13%
ACTGTAAACCTGTGGT (sugars k3 d10 k3, PS)	-6%
CGTGTGGAAAGATTTG (sugars k3 d10 k3, PS)	0%
CCCAAAAGCCCTCTCA (sugars k3 d10 k3, PS)	12%
CTTTAAATTGGTAGCT (sugars k3 d10 k3, PS)	45%
ATTACTCTAATCACTG (sugars k3 d10 k3, PS)	28%
ATCTAAAAGCATTGCC (sugars k3 d10 k3, PS)	18%
TTTAAGCCTTCGGTGC (sugars k3 d10 k3, PS)	13%
CAGTAACATCTGATTC (sugars k3 d10 k3, PS)	57% and 78%
TCCTTCACCAAATCGC (sugars k3 d10 k3, PS)	36%
AGCTACAACAAGTAAG (sugars k3 d10 k3, PS)	12%
AAGGTTACCATAAGTA (sugars k3 d10 k3, PS)	46%
ACTATTTCTCCAGGAC (sugars k3 d10 k3, PS)	20%
CTACTTTAAGCCTTCG (sugars k3 d10 k3, PS)	31%
CCGCCTCTTAAAGCAC (sugars k3 d10 k3, PS)	-9%
AATCACAAATACGACT (sugars k3 d10 k3, PS)	23%
CTTTAAATGACGCAAT (sugars k3 d10 k3, PS)	35%
TCCGCTAAGATGCTAG (sugars k3 d10 k3, PS)	15%
TTTATCACTCAGCTGG (sugars k3 d10 k3, PS)	53%
GTTACATGTTCCCACC (sugars k3 d10 k3, PS)	37%
ACTATATTTAAGGCCT (sugars k3 d10 k3, PS)	40%

Sequence	target mRNA inhibition
ATGCAATACTGCAGAT (sugars k3 d10 k3, PS)	1%
TGACACTTCTCTTGAC (sugars k3 d10 k3, PS)	30%
CAACATTTGGCCTACT (sugars k3 d10 k3, PS)	17%
AAATCGCACTGGCTCC (sugars k3 d10 k3, PS)	6%
AGTATTATAATAGAGC (sugars k3 d10 k3, PS)	20%
AGGACTTGGCAGTCTG (sugars k3 d10 k3, PS)	30%
GGCTATCAAATTCATT (sugars k3 d10 k3, PS)	42%
ACTCTTGATCTTGAAT (sugars k3 d10 k3, PS)	43%
GAATGTTTCTTGTCAC (sugars k3 d10 k3, PS)	43%
GTTAAGTTTTCAGCAG (sugars k3 d10 k3, PS)	17%
GTTAAGAGAAGCCCAG (sugars k3 d10 k3, PS)	20%
GGACATCTCTTCCACA (sugars k3 d10 k3, PS)	24%
TAAAGTGTGATAGTTC (sugars k3 d10 k3, PS)	14%
CCTGGGTCAGCTGTCA (sugars k3 d10 k3, PS)	51%
AAAAAGTAGTTCTTCG (sugars k3 d10 k3, PS)	16%
TCATCAAACACCTCAC (sugars k3 d10 k3, PS)	-8%
TGTTTAAGTCACCTTC (sugars k3 d10 k3, PS)	74% and 63%
TCCAAAAGAGAACCAC (sugars k3 d10 k3, PS)	21%
CAACCCACCAAAGACC (sugars k3 d10 k3, PS)	2%
AAAGTGGTTGCCCGCT (sugars k3 d10 k3, PS)	15%
AATGGAGGTATGACAT (sugars k3 d10 k3, PS)	5%
GTGTGGTTGCCAAGCC (sugars k3 d10 k3, PS)	43% and 37% and 50%
